From US8778961B2, “O-methylated rapamycin derivatives for alleviation and inhibition of lymphoproliferative disorders” (The Trustees of the University of Pennsylvania, priority 2000, dated 2014)

Assays:
Assay in all cases: apoptosis (Annexin V flow cytometry)
Type in all cases: cell-based, human
Conditions in all cases: 24 hours
20A line = system: 20A line
Procedure: (§1) The cell lines to be examined were cultured with several concentrations of SDZ RAD (0 to 10 nanomolar) for 24-48 hours. The cells were washed with DPBS and stain solution (pH 7.2) containing 3% PEG 6000, 50 micrograms per milliliter DNA fluorochrome propidium iodide (PI; Calbiochem, San Diego, Calif.), annexin V-FITC as described (Douglas et al., 1998, Cytometry 32:57-65) 0.1% (v/v) TRITON™ X (Sigma, St. Louis, Mo.), 4 millimolar citrate buffer pH 7.8, and 360 units per milliliter RNase A (Worthington Biochemicals, Freehold, N.J.) for 30 minutes at 37 C. Next, salt solution pH 7.2 (3% w/v PEG 6000, PI 50 micrograms per milliliter, 0.1% v/v TRITON™ X, and 0.4 molar NaCl) was added, and the cells were incubated at 4° C. in the dark for 1 hour before flow cytometry analysis was performed, as described (Douglas et al., 1998, Cytometry 32:57-65; Kawamata et al., 1998, Blood 91:561-569; Pepper et al., 1998, Leuk. Res. 22:439-444).
(§2) Previous studies have shown that immunosuppressive macrolides as represented by rapamycin can induce or enhance apoptosis stimulated by other agents (Gottschalk et al., 1994, Proc. Natl. Acad. Sci. USA 91:7350-7354; Muthukkumar et al., 1995, Transplantation 60:264-270; Shi et al., 1995, Cancer Res. 55:1982-1988; Hosoi et al., 1999, Cancer Res. 59:886-894). In order to determine if SDZ RAD affects the apoptotic rate in PTLD-like cells, we tested apoptosis-induced surface expression of Annexin V by flow cytometry in the 20A, A1, A2D6 cell lines (FIG. 3). […] In A2D6 line, it led to 11% increase, and in the 20A line to 12% increase. At the highest dose (10 nanomolar), SDZ RAD led to approximately 240% increase in A1 line and 45% increase in both A2D6 and 20A lines.

A2D6 line = system: A2D6 line
Procedure: as §1, §2

A1 line = system: A1 line
Procedure: as §1, §2

Q: How did the “increase in the number of apoptotic cells” value (“increase in the number” for short) (20A line; 1 nanomolar) turn out when `CO[C@H]1C[C@@H]2CC[C@@H](C)[C@@](O)(O2)C(=O)C(=O)N2CCCC[C@H]2C(=O)O[C@H]([C@H](C)C[C@@H]2CC[C@@H](OCCO)[C@H](OC)C2)CC(=O)[C@H](C)/C=C(\C)[C@@H](O)[C@@H](OC)C(=O)[C@H](C)C[C@H](C)/C=C/C=C/C=C/1C` [SDZ RAD, 40-O-(2-hydroxy)ethyl-rapamycin] was run?
A: The value was 12%.

Q: What about the “increase in the number” value (20A line; 10 nanomolar) of the same compound?
A: The value was 45%.

Q: What about the “increase in the number” value (A2D6 line; 1 nanomolar) of the same compound?
A: The value was 11%.

Q: And the “increase in the number” value (A2D6 line; 10 nanomolar)?
A: The value was 45%.

Q: What about the “increase in the number” value (A1 line; 1 nanomolar) of the same compound?
A: Its value is “approximately 60%”.

Q: And the “percentage of apoptotic cells” value (A1 line; 1 nanomolar, from 10% without drug)?
A: The value was 16%.

Q: And the “increase in the number” value (A1 line; 10 nanomolar)?
A: Its value is “approximately 240%”.
